Laboratory results reported in PMC10541198, “Specific quinone reductase 2 inhibitors reduce metabolic burden and reverse Alzheimer’s disease phenotype in mice” (The Journal of Clinical Investigation, 2023).
Values joined by “and” are separate entries in the source; they are usually repeats but may differ in a detail not shown here. Equal entries are not always repeated.

Experiments:
Type in all cases: cell-based
[1] = biological target: T1, QR2 expressed in HEK293T (Homo sapiens, UniProt P16083); experiment: Cellular thermal shift assay (CETSA; Tagg curves and ITDRF); conditions: 73°C; for EC50: n = 3, read-out: EC50, isothermal dose-response of QR2 stabilization; for QR2 stabilization signal, ITDRF (replicates): log[Inhibitor]
T1 construct: endogenous in cells; host or cells: HEK293T
T1 sequence (P16083 1-231): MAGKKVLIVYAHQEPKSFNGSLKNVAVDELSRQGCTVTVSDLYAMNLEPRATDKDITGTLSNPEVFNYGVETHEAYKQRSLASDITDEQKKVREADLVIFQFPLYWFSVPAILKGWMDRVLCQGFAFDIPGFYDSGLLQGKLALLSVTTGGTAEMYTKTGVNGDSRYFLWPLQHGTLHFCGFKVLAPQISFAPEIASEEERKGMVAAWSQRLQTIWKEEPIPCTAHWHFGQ
Method: (§1) To establish direct target engagement and cell membrane permeability, a cellular thermal shift assay (CETSA) was carried out, using leading QR2is YB’s-537, 800, and 808. Following a 1 hour preincubation with 5 μM of the QR2is or vehicle, thermal aggregation curves (Taggs) of QR2 expressed in HEK293T were measured in increasing temperatures. All QR2is increased QR2 thermal stability compared with vehicle (Supplemental Figure 2A). Based on the Tagg curves we selected 73°C for isothermal dose-response fingerprint (IDTRF) experiments (Supplemental Figure 2B). The ITDRF allowed the relative quantification of the binding of each of the QR2is to QR2, measured as the EC50 (Figure 3A). […] We evaluated the safety of the QR2is using cell toxicity and viability assays. […] Cell viability was assessed by XTT assay in HEK239T cells, using a dose response, with 3- or 24-hour incubations of the leading QR2is. No sign of toxicity was seen (Figure 3C). Next, we wanted to assess if, similar to QR2 KO, QR2is can reduce cellular ROS in HCT116 cells and see whether any observable effect is occluded in QR2Δ cells. […] We then assessed WT HCT116 cells by immunoblot (Supplemental Figure 2, C and D), after being treated with YB-800 (2 μM) for 4 consecutive days.
(§2) H2DCFDA ROS assay was carried out according to established protocols, with some adjustment (Supplemental Methods) ([6]). Cell toxicity was measured via ATP depletion (CellTiter Glo, Promega) in THLE-2 cells (ATCC, CRL-2706), following 72 hours of exposure to the test compounds, and cell viability was assessed using XTT assay (Biological Industries) according to manufacturers protocols. CETSA was performed as previously described ([53]) with some modifications, using QR2 (Santa Cruz, sc-271665) and SOD1 (Santa Cruz, sc-17767) antibodies. SDS-PAGE and immunoblot imaging were carried out as previously described ([55]), using Tubulin (Sigma-Aldrich, SAB4500087), QR2 (Santa Cruz, sc-271665), NDUFA9 (AbCam, ab14713) and CD73 (Cell Signaling Technology, D7F9A) antibodies. […]
(§3) HEK293FT cells were cultured with penicillin- streptomycin antibiotics in Invitrogen DMEM (Thermo
(§4) Fisher Scientific) with 10% fetal bovine serum a nd L -glutamine, and grown to 80-90% confluence in 100
mm plates, while being passaged every 2–3 d. […]
Cellular The rm a l Shift Assay (CETSA)
The CETSA assay was performed as described(54) with some modifications. Bri efl y, HEK293T cel ls wer e
trypsinized (Biological Indust ri es), washed in PBS (Sigma-Aldrich) and then suspended in PBS containing
protease inhibitor cocktail (Roche). The suspended cells were then divided into two Eppendorf tubes and
were treated with either compound or DMSO (Sigma-Aldrich) for 1h at 37 °C with shaking. Following
treatment, each sample was divided into PCR tubes (100µL/tube) and subjected to a temperature gradient
(ranging fr om 63 to 80 °C) for 3 minutes. Cell lysates we r e obtained by 3- cycles of freeze- t ha w using li qui d
nitrogen and a thermal bl ock set to 25 °C. Samples were then centrifuged at 15,000rpm at 4 °C f or 20min a nd
were subsequently analyzed by Western Blot of QR2 (1:100, Santa Cruz; sc-271665). The isothermal
concentration response fingerprint (ITDRF) experiments were done using a constant temperature of 73 °C.
Band intensities were normalized to the highest concentration and SOD1 levels (1:200, Santa Cruz; sc -
(§5) 17767). Analysis of the results wer e done in accordance to Jafari et a l .( 63) us i ng GraphPad Pr i sm software.

[2] = system: THLE-2 cells; experiment: ATP depletion cell toxicity assay (CellTiter Glo), 72 h; conditions: for cell viability, Cell-Titer-Glo (replicates): THLE2, 72 hour, in % (unit assumed); for LD50, cell viability (Cell-Titer-Glo): THLE2 cells, 72 hour incubation
Method: H2DCFDA ROS assay was carried out according to established protocols, with some adjustment (Supplemental Methods) ([6]). Cell toxicity was measured via ATP depletion (CellTiter Glo, Promega) in THLE-2 cells (ATCC, CRL-2706), following 72 hours of exposure to the test compounds, and cell viability was assessed using XTT assay (Biological Industries) according to manufacturers protocols. CETSA was performed as previously described ([53]) with some modifications, using QR2 (Santa Cruz, sc-271665) and SOD1 (Santa Cruz, sc-17767) antibodies. SDS-PAGE and immunoblot imaging were carried out as previously described ([55]), using Tubulin (Sigma-Aldrich, SAB4500087), QR2 (Santa Cruz, sc-271665), NDUFA9 (AbCam, ab14713) and CD73 (Cell Signaling Technology, D7F9A) antibodies.
with a 100 µM as upper limit, for 72 h. […]
(§6) Cellular The rm a l Shift Assay (CETSA) […]
as §5

[3] = system: HEK293 cells; experiment: XTT cell viability assay; conditions: in % (unit assumed)
Method: as §1, §2, §3, §4
mm plates, while being passaged every 2–3 d. For the XTT assay (Biological Industries), cells were then
collected, centrifuged, and resuspended in fresh Minimum Essential Medium, and seeded at 50,000
cells/well in 96-well, poly- L-lysine-coated Nunc black, clear flat-bottomed plates (Thermo Fisher
Scientific). The next day, the cells were treated with increasing doses of QR2 inhibitors or vehicle f or 3 h,
and the XTT assay was then carried out as per the manufacturer’s instructions.
as §6, §5

Structure (SMILES) | EC50 [1] | QR2 stabilization signal, ITDRF (replicates) ([1]; M -5) | QR2 stabilization signal, ITDRF (replicates) ([1]; M -5.6) | QR2 stabilization signal, ITDRF (replicates) ([1]; M -5.9) | QR2 stabilization signal, ITDRF (replicates) ([1]; M -6.2) | QR2 stabilization signal, ITDRF (replicates) ([1]; M -6.5) | QR2 stabilization signal, ITDRF (replicates) ([1]; M -6.8) | QR2 stabilization signal, ITDRF (replicates) ([1]; M -7.1) | QR2 stabilization signal, ITDRF (replicates) ([1]; M -7.4) | QR2 stabilization signal, ITDRF (replicates) ([1]; M -7.7) | QR2 stabilization signal, ITDRF (replicates) ([1]; M -8) | QR2 stabilization signal, ITDRF (replicates) ([1]; M -9) | cell viability, Cell-Titer-Glo (replicates) ([2]; inhibitor 3.9e-7 M) | cell viability, Cell-Titer-Glo (replicates) ([2]; inhibitor 7.8e-7 M) | cell viability, Cell-Titer-Glo (replicates) ([2]; inhibitor 1.5625e-6 M) | cell viability, Cell-Titer-Glo (replicates) ([2]; inhibitor 3.125e-6 M) | cell viability, Cell-Titer-Glo (replicates) ([2]; inhibitor 6.25e-6 M) | cell viability, Cell-Titer-Glo (replicates) ([2]; inhibitor 1.25e-5 M) | cell viability, Cell-Titer-Glo (replicates) ([2]; inhibitor 2.5e-5 M) | cell viability, Cell-Titer-Glo (replicates) ([2]; inhibitor 5e-5 M) | also measured
Cc1ccc(-c2cn3cccc(C)c3n2)cc1S(=O)(=O)N1CCNCC1 [YB-537] | 129 nM | 8037 and 7667 | 10469 and 7617 and 6857 | 10266 and 7463 and 6486 | 8878 and 6878 and 4582 | 6804 and 5633 | 3383 and 3296 and 2262 | 1653 and 1901 and 1028 | 762 and 749 and 458 | 410 and 416 | 212 and 226 and 182 | 110 and 98 and 105 | 89.3 and 104.9 and 105.3 | 93.6 and 99.6 and 103.9 | 96.4 and 109.9 and 90.1 | 92.2 and 96.1 and 103.0 | 89.6 and 101.5 and 85.3 | 95.7 and 97.8 and 93.2 | 93.9 and 92.0 and 88.2 | 91.4 and 92.2 | cell viability, Cell-Titer-Glo (replicates) ([2]; inhibitor 0.0001 M): 81.5 and 82.7 and 80.4; LD50, cell viability (Cell-Titer-Glo) [2]: > 100 µM; cell viability, XTT (replicates) ([3]; 3h, inhibitor 2e-8 M): 94.7 and 105.7 and 95.0 and 97.1; cell viability, XTT (replicates) ([3]; 3h, inhibitor 2e-7 M): 97.9 and 102.5 and 95.0 and 99.0; cell viability, XTT (replicates) ([3]; 3h, inhibitor 2e-6 M): 99.1 and 104.8 and 106.5 and 98.8; cell viability, XTT (replicates) ([3]; 3h, inhibitor 2e-5 M): 94.7 and 101.0 and 104.9 and 96.7; cell viability, XTT (replicates) ([3]; 24h, inhibitor 2e-8 M): 105.3 and 102.1 and 104.1; cell viability, XTT (replicates) ([3]; 24h, inhibitor 2e-7 M): 107.4 and 101.8 and 105.2; cell viability, XTT (replicates) ([3]; 24h, inhibitor 2e-6 M): 109.0 and 101.0 and 104.0; cell viability, XTT (replicates) ([3]; 24h, inhibitor 2e-5 M): 106.0 and 97.3 and 109.2
Cc1ccc(-c2cn3cccc(C)c3n2)cc1S(=O)(=O)N1CCC(C)CC1 [YB-800] | 34 nM | 4070 and 3736 | 4506 and 4561 and 4867 | 4786 and 3969 and 5175 | 5056 and 3732 and 5224 | 4815 and 4201 and 4200 | 4651 and 3683 and 3564 | 3508 and 2203 and 2700 | 2230 and 1871 and 2017 | 1054 and 942 and 1103 | 655 and 480 and 469 | 36 and 24 and 14 | 96.3 and 111.4 | 111.0 and 92.8 | 96.0 | 102.0 and 98.8 | 95.3 and 97.2 | 87.5 and 81.6 | 74.8 and 70.3 | 54.4 and 53.1 | cell viability, Cell-Titer-Glo (replicates) ([2]; inhibitor 0.0001 M): 50.5 and 51.2; LD50, cell viability (Cell-Titer-Glo) [2]: 78.401 µM; cell viability, XTT (replicates) ([3]; 3h, inhibitor 2e-8 M): 110.8 and 103.7 and 108.0 and 102.4; cell viability, XTT (replicates) ([3]; 3h, inhibitor 2e-7 M): 102.8 and 101.2 and 105.3 and 105.6; cell viability, XTT (replicates) ([3]; 3h, inhibitor 2e-6 M): 102.2 and 105.1 and 102.6 and 106.5; cell viability, XTT (replicates) ([3]; 3h, inhibitor 2e-5 M): 89.7 and 90.4 and 98.2 and 92.7; cell viability, XTT (replicates) ([3]; 24h, inhibitor 2e-8 M): 107.0 and 100.8 and 108.4; cell viability, XTT (replicates) ([3]; 24h, inhibitor 2e-7 M): 107.9 and 100.0 and 108.0; cell viability, XTT (replicates) ([3]; 24h, inhibitor 2e-6 M): 108.3 and 101.8 and 109.9; cell viability, XTT (replicates) ([3]; 24h, inhibitor 2e-5 M): 104.0 and 96.6 and 104.9
